From patent US8859573B2, “Pyrimidinone and pyridinone compounds for use in the treatment of diseases or conditions mediated by Lp-PLA2” (Glaxo Group Limited, priority 2010, dated 2014)
Structures can show the parent of a compound that is named as a salt.

Molecular target: T1, Lp-PLA2 from plasma (Homo sapiens, UniProt Q13093)
T1 construct: from tissue; host or cells: pooled human plasma
T1 sequence (Q13093 22-441): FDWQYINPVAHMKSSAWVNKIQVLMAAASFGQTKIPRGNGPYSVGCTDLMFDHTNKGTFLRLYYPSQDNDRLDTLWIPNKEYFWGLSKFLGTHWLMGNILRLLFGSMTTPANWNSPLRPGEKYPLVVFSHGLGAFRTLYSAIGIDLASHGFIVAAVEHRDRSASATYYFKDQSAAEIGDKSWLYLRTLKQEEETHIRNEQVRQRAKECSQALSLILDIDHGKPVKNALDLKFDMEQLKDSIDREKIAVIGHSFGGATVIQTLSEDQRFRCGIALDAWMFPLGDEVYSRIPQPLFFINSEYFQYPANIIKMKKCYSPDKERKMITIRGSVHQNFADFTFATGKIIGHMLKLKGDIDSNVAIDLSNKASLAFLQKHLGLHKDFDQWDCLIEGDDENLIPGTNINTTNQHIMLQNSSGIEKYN
Assay: Lp-PLA2 human plasma assay (Thio-PAF assay)
Assay type: biochemical
Details: pooled human plasma; read-out: pIC50 values in the thio-PAF assay (converted)
Description: (3) Lipoprotein-Associated Phospholipase A2 (Lp-PLA2) Human Plasma Assay (Also Referred to as “Thio-PAF Assay”)
The human plasma assay utilizes a thioester analog of PAF (phosphatidylcholine), where hydrolysis yields to the formation of a phospholipid containing a free thiol group. The amount of thiol is quantitated continuously by reacting with CPM (7-diethylamino-3-(4′-maleimidylphenyl)-4-methylcoumarin), a maleimide which increases in fluoresence after Michael addition of thiols. This assay may detect the activity of Lp-PLA2 from plasma, as determined by specific inhibition by Lp-PLA2 inhibitors.
The thio-PAF assay was run as a quenched 15 μL assay. Compounds source plate was prepared by making 1:3 (by volume) serial dilution of the compounds into pure DMSO on 384-well microplate. 0.01 μL of compounds on compound source plate were transferred to 384 well Greiner 784076 (black) low-volume plates by ECHO liquid dispenser. 8 μL pooled human plasma, which was previously aliquoted and frozen, was added. Plates were centrifuged for 10 sec at 500 rpm. After 30 minutes preincubation, 2 μL of substrate (2.5 mM thio-PAF, 3.2 mM NEM (N-ethylmaleimide) [made fresh daily in DMSO], and 32 μM CPM [from a DMSO stock] in assay buffer of 50 mM HEPES, pH7.4, 150 mM NaCl, 1 mM CHAPS was added to 384 well Greiner 784076 (black) low-volume plates by BRAVO liquid handling station. Plates were centrifuged for 10 sec at 500 rpm. Plate was covered to protect from light and incubated for 2 min at room temperature. Reaction was quenched with 5 μL of 5% aqueous trifluoroacetic acid (TFA). Plates were covered to protect from light and incubated for 40 min at room temperature. Plates were read at ex: 380/em: 485 using-Envision microplate reader. PIC50 data, curve and QC analysis was conducted by using XLFit module in Excel.

N#Cc1cc(COc2ccn(Cc3ccncc3)c(=O)n2)ccc1Oc1ccc(Cl)c(C(F)(F)F)c1 [Example 2, 2-{[4-Chloro-3-(trifluoromethyl)phenyl]oxy}-5-({[2-oxo-1-(4-pyridinylmethyl)-1,2-dihydro-4-pyrimidinyl]oxy}methyl)benzonitrile trifluoroacetate] was tested. Which IC50 did it give?
The IC50 was ≤ 100 nM.

With N#Cc1cc(COc2cc[nH]c(=O)n2)ccc1Oc1ccc(Cl)c(C(F)(F)F)c1 [Example 3, 2-(4-Chloro-3-(trifluoromethyl)phenoxy)-5-(((2-oxo-2,3-dihydropyrimidin-4-yl)oxy)methyl)benzonitrile] as the molecule, how does the IC50 read?
Its IC50 is > 10000 nM.

How did the IC50 turn out when Cn1cc(Cn2ccc(OCc3ccc(Oc4ccc(Cl)c(C(F)(F)F)c4)c(C#N)c3)nc2=O)cn1 [Example 6, 2-{[4-Chloro-3-(trifluoromethyl)phenyl]oxy}-5-[({1-[(1-methyl-1H-pyrazol-4-yl)methyl]-2-oxo-1,2-dihydro-4-pyrimidinyl}oxy)methyl]benzonitrile] was run?
The IC50 was ≤ 100 nM.

N#Cc1cc(CCOc2ccn(Cc3cccnc3)c(=O)n2)ccc1Oc1ccc(Cl)c(C(F)(F)F)c1 [Example 7, 2-{[4-Chloro-3-(trifluoromethyl)phenyl]oxy}-5-(2-{[2-oxo-1-(3-pyridinylmethyl)-1,2-dihydro-4-pyrimidinyl]oxy}ethyl)benzonitrile trifluoroacetate] was tested. Which IC50 did it give?
The IC50 was ≤ 100 nM.

How did the IC50 turn out when O=c1nc(OCCc2ccc(Oc3ccc(Cl)c(C(F)(F)F)c3)cc2)ccn1CCc1cccnc1 [Example 13, 4-{[2-(4-{[4-Chloro-3-(trifluoromethyl)phenyl]oxy}phenyl)ethyl]oxy}-1-[2-(3-pyridinyl)ethyl]-2 (1H)-pyrimidinone trifluoroacetate] was run?
Its IC50 is ≤ 1000 nM.

For O=c1nc(OCc2ccc(Oc3ccc(Cl)c(C(F)(F)F)c3)cn2)ccn1Cc1cccnc1 [Example 14, 4{[(5-{[4-Chloro-3-(trifluoromethyl)phenyl]oxy}-2-pyridinyl)methyl]oxy}-1-(3-pyridinylmethyl)-2(1H)-pyrimidinone], which IC50 is on record?
The IC50 was ≤ 100 nM.

How did the IC50 turn out when Cn1cc(Cn2ccc(OCc3ccc(Oc4ccc(Cl)c(C(F)(F)F)c4)cn3)nc2=O)cn1 [Example 15, 4-{[(5-{[4-Chloro-3-(trifluoromethyl)phenyl]oxy}-2-pyridinyl)methyl]oxy}-1-[(1-methyl-1H-pyrazol-4-yl)methyl]-2(1H)-pyrimidinone] was run?
Its IC50 is ≤ 100 nM.

With Cn1cc(Cn2ccc(OCCc3ccc(Oc4ccc(Cl)c(C(F)(F)F)c4)cn3)nc2=O)cn1 [Example 16, 4-{[2-(5-{[4-Chloro-3-(trifluoromethyl)phenyl]oxy}-2-pyridinyl)ethyl]oxy}-1-[(1-methyl-1H-pyrazol-4-yl)methyl]-2(1H)-pyrimidinone] as the molecule, how does the IC50 read?
Its IC50 is ≤ 100 nM.

Which IC50 does the source give for N#Cc1cc(CNc2ccn(Cc3cccnc3)c(=O)n2)ccc1Oc1ccc(Cl)c(C(F)(F)F)c1 [Example 19, 2-{[4-Chloro-3-(trifluoromethyl)phenyl]oxy}-5-({[2-oxo-1-(3-pyridinylmethyl)-1,2-dihydro-4-pyrimidinyl]amino}methyl)benzonitrile] here?
The IC50 was ≤ 100 nM.

Which IC50 does the source give for Cn1cc(Cn2ccc(CCc3ccc(Oc4cccc(C(F)(F)F)c4)c(C#N)c3)nc2=O)cn1 [Example 20, 5-(2-{1-[(1-Methyl-1H-pyrazol-4-yl)methyl]-2-oxo-1,2-dihydro-4-pyrimidinyl}ethyl)-2-{[3-(trifluoromethyl)phenyl]oxy}benzonitrile] here?
The IC50 was ≤ 1000 nM.

Cn1cc(Cn2ccc(OCc3ccc(Oc4ccc(Cl)c(C(F)(F)F)c4)c(C#N)c3)cc2=O)cn1 [Example 22, 2-{[4-Chloro-3-(trifluoromethyl)phenyl]oxy}-5-[({1-[(1-methyl-1H-pyrazol-4-yl)methyl]-2-oxo-1,2-dihydro-4-pyridinyl}oxy)methyl]benzonitrile] was tested. Which IC50 did it give?
The IC50 was ≤ 1000 nM.

With Cn1cc(Cn2ccc(OCCc3ccc(Oc4ccc(Cl)c(C(F)(F)F)c4)cc3)cc2=O)cn1 [Example 24, 4-{[2-(4-{[4-Chloro-3-(trifluoromethyl)phenyl]oxy}phenyl)ethyl]oxy}-1-[(1-methyl-1H-pyrazol-4-yl)methyl]-2(1H)-pyridinone] as the molecule, how does the IC50 read?
The IC50 was ≤ 1000 nM.

With Cn1cc(Cn2cc(F)c(OCCc3ccc(Oc4ccc(Cl)c(C(F)(F)F)c4)cc3)nc2=O)cn1 [Example 29, 4-{[2-(4-{[4-Chloro-3-(trifluoromethyl)phenyl]oxy}phenyl)ethyl]oxy}-5-fluoro-1-[(1-methyl-1H-pyrazol-4-yl)methyl]-2(1H)-pyrimidinone] as the molecule, how does the IC50 read?
The IC50 was ≤ 100 nM.

Which IC50 does the source give for Cn1cc(Cn2cc(Cl)c(OCCc3ccc(Oc4ccc(Cl)c(C(F)(F)F)c4)cc3)nc2=O)cn1 [Example 30, 5-chloro-4-{[2-(4-{[4-Chloro-3-(trifluoromethyl)phenyl]oxy}phenyl)ethyl]oxy}-1-[(1-methyl-1H-pyrazol-4-yl)methyl]-2(1H)-pyrimidinone] here?
The IC50 was ≤ 100 nM.

For COc1ncc(Cn2cc(F)c(OCCc3cnc(Oc4ccc(Cl)c(C(F)(F)F)c4)c(F)c3)nc2=O)cn1 [Example 34, 4-(2-(6-(4-chloro-3-(trifluoromethyl)phenoxy)-5-fluoropyridin-3-yl)ethoxy)-5-fluoro-1-((2-methoxypyrimidin-5-yl)methyl)pyrimidin-2(1H)-one], which IC50 is on record?
Its IC50 is ≤ 100 nM.

With COc1ncc(Cn2cc(F)c(OCCc3ccc(Oc4ccc(Cl)c(C(F)(F)F)c4)cc3)nc2=O)cn1 [Example 36, 4-(4-(4-chloro-3-(trifluoromethyl)phenoxy)phenethoxy)-5-fluoro-1-((2-methoxypyrimidin-5-yl)methyl)pyrimidin-2(1H)-one] as the molecule, how does the IC50 read?
Its IC50 is ≤ 100 nM.

How did the IC50 turn out when COc1ncc(Cn2cc(Cl)c(OCCc3cnc(Oc4ccc(F)c(C(F)(F)F)c4)c(F)c3)nc2=O)cn1 [Example 37, 5-chloro-4-(2-(5-fluoro-6-(4-fluoro-3-(trifluoromethyl)phenoxy)pyridin-3-yl)ethoxy)-1-((2-methoxypyrimidin-5-yl)methyl)pyrimidin-2(1H)-one] was run?
Its IC50 is ≤ 100 nM.

How did the IC50 turn out when Cn1cc(Cn2cc(Cl)c(OCCc3cnc(Oc4ccc(F)c(C(F)(F)F)c4)c(F)c3)nc2=O)cn1 [Example 38, 5-chloro-4-(2-(5-fluoro-6-(4-fluoro-3-(trifluoromethyl)phenoxy)pyridin-3-yl)ethoxy)-1-((1-methyl-1H-pyrazol-4-yl)methyl)pyrimidin-2(1H)-one] was run?
The IC50 was ≤ 100 nM.

Cn1cc(Cn2cc(F)c(OCCc3ccc(Oc4ccc(F)c(C(F)(F)F)c4)nc3)nc2=O)cn1 [Example 39, 5-fluoro-4-(2-(6-(4-fluoro-3-(trifluoromethyl)phenoxy)pyridin-3-yl)ethoxy)-1-((1-methyl-1H-pyrazol-4-yl)methyl)pyrimidin-2(1H)-one] was tested. Which IC50 did it give?
The IC50 was ≤ 100 nM.

With Cn1cc(Cn2cc(F)c(OCCc3ccc(Oc4ccc(Cl)c(C(F)(F)F)c4)nc3)nc2=O)cn1 [Example 40, 4-(2-(6-(4-chloro-3-(trifluoromethyl)phenoxy)pyridin-3-yl)ethoxy)-5-fluoro-1-((1-methyl-1H-pyrazol-4-yl)methyl)pyrimidin-2(1H)-one] as the molecule, how does the IC50 read?
Its IC50 is ≤ 100 nM.

How did the IC50 turn out when Cn1cc(Cn2cc(F)c(OCCc3cnc(Oc4ccc(F)c(C(F)(F)F)c4)c(F)c3)nc2=O)cn1 [Example 42, 5-fluoro-4-(2-(5-fluoro-6-(4-fluoro-3-(trifluoromethyl)phenoxy)pyridin-3-yl)ethoxy)-1-((1-methyl-1H-pyrazol-4-yl)methyl)pyrimidin-2(1H)-one] was run?
Its IC50 is ≤ 100 nM.

COc1ncc(Cn2cc(F)c(OCCc3cnc(Oc4ccc(F)c(C(F)(F)F)c4)c(F)c3)nc2=O)cn1 [Example 43, 5-fluoro-4-(2-(5-fluoro-6-(4-fluoro-3-(trifluoromethyl)phenoxy)pyridin-3-yl)ethoxy)-1-((2-methoxypyrimidin-5-yl)methyl)pyrimidin-2(1H)-one] was tested. Which IC50 did it give?
Its IC50 is ≤ 100 nM.

Cn1cc(Cn2cc(Cl)c(OCCc3ccc(Cc4ccc(Cl)c(C(F)(F)F)c4)cc3)nc2=O)cn1 [Example 44, 5-chloro-4-(4-(4-chloro-3-(trifluoromethyl)benzyl)phenethoxy)-1-((1-methyl-1H-pyrazol-4-yl)methyl)pyrimidin-2(1H)-one] was tested. Which IC50 did it give?
Its IC50 is ≤ 100 nM.

Which IC50 does the source give for CCn1cc(F)c(OCCc2ccc(Oc3ccc(Cl)c(C(F)(F)F)c3)nc2)nc1=O [Example 52, 4-(2-(6-(4-chloro-3-(trifluoromethyl)phenoxy)pyridin-3-yl)ethoxy)-1-ethyl-5-fluoropyrimidin-2(1H)-one] here?
Its IC50 is ≤ 1000 nM.

How did the IC50 turn out when COc1ncc(Cn2cc(Cl)c(OCc3ccc(Oc4ccc(F)c(F)c4)c(F)c3)nc2=O)cn1 [Example 54, 5-chloro-4-((4-(3,4-difluorophenoxy)-3-fluorobenzyl)oxy)-1-((2-methoxypyrimidin-5-yl)methyl)pyrimidin-2(1H)-one] was run?
The IC50 was ≤ 100 nM.
